Results as given in patent US9777020B2, “Furo-3-carboxamide derivatives and methods of use” (AbbVie Inc., priority 2014, dated 2017).

Biological target: TrkA (Homo sapiens (Human), UniProt P04629)
Assay: TrkA kinase HTRF enzyme inhibition assay
Assay type: biochemical
Settings: TrkA pre-incubated with 200 μM ATP
Method in brief: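 TrkA (2-10 nM) pre-activated 20 min with 200 μM ATP in HEPES pH 7.4/Mg/Mn buffer, compound added for 10 min, then biotinylated LCK-analog peptide (125 nM) for 1 h at ambient temperature. HTRF phosphotyrosine detection (665/620 ratio); duplicate half-log dilutions, IC50 from initial-rate inhibition via equation 1.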

TrkA, sequence (P04629 33-796): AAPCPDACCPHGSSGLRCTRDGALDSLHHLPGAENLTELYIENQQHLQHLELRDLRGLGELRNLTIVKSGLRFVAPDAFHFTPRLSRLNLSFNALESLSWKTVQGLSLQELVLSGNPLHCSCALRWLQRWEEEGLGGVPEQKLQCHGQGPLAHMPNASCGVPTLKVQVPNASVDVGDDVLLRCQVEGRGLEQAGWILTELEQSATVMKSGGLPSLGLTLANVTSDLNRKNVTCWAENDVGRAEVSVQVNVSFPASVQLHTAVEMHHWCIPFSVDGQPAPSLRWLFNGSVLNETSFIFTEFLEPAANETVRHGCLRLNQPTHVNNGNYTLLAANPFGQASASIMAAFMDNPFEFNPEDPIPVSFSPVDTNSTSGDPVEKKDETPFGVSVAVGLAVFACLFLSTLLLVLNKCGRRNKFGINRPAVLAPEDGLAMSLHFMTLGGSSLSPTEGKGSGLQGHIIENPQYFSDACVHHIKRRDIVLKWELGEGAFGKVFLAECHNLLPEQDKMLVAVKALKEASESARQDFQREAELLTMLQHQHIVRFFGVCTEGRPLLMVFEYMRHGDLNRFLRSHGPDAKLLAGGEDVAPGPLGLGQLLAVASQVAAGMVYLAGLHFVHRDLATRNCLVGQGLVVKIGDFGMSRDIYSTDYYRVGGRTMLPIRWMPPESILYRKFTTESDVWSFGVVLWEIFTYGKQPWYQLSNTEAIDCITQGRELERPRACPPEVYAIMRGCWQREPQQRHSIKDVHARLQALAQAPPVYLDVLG

| IC50 | Compound |
| --- | --- |
| 0.0103 µM | Cn1cc2cc(NC(=O)c3coc4c3C(=O)CC3(CC3)C4)ccc2n1 [Example 159, N-(2-methyl-2H-indazol-5-yl)-4-oxo-4,7-dihydro-5H-spiro[1-benzofuran-6,1′-cyclopropane]-3-carboxamide] |
| 0.258 µM | Cn1cc2cc(NC(=O)c3coc4c3C(=O)CNC4)ccc2n1 [Example 160, N-(2-methyl-2H-indazol-5-yl)-4-oxo-4,5,6,7-tetrahydrofuro[2,3-c]pyridine-3-carboxamide] |
| 0.872 µM | Cn1cc2cc(NC(=O)c3coc4c3C(=O)CN(S(C)(=O)=O)C4)ccc2n1 [Example 161, N-(2-methyl-2H-indazol-5-yl)-6-(methylsulfonyl)-4-oxo-4,5,6,7-tetrahydrofuro[2,3-c]pyridine-3-carboxamide] |
| 0.058 µM | Cn1cc2cc(NC(=O)c3coc4c3C(=O)CC(C)(C(N)=O)C4)ccc2n1 (stereo not shown) [Example 162, 6-methyl-N^3-(2-methyl-2H-indazol-5-yl)-4-oxo-4,5,6,7-tetrahydro-1-benzofuran-3,6-dicarboxamide] |
| 0.156 µM | COC(=O)C1(C)CC(=O)c2c(C(=O)Nc3ccc4nn(C)cc4c3)coc2C1 (stereo not shown) [Example 163, methyl 6-methyl-3-[(2-methyl-2H-indazol-5-yl)carbamoyl]-4-oxo-4,5,6,7-tetrahydro-1-benzofuran-6-carboxylate] |
| 0.0219 µM | Cn1cc2cc(NC(=O)c3coc4c3C(=O)CC(C)(CO)C4)ccc2n1 (stereo not shown) [Example 164, 6-(hydroxymethyl)-6-methyl-N-(2-methyl-2H-indazol-5-yl)-4-oxo-4,5,6,7-tetrahydro-1-benzofuran-3-carboxamide] |
| 0.0133 µM | COc1cc(N2CCN(C(=O)OC(C)(C)C)CC2)ccc1NC(=O)c1coc2c1C(=O)CC(C)(CO)C2 (stereo not shown) [Example 165, tert-butyl 4-[4-({[6-(hydroxymethyl)-6-methyl-4-oxo-4,5,6,7-tetrahydro-1-benzofuran-3-yl]carbonyl}amino)-3-methoxyphenyl]piperazine-1-carboxylate] |
| 0.104 µM | COCC1(C)CC(=O)c2c(C(=O)Nc3ccc(N4CCNCC4)cc3OC)coc2C1 (stereo not shown) [Example 166, 6-(methoxymethyl)-N-[2-methoxy-4-(piperazin-1-yl)phenyl]-6-methyl-4-oxo-4,5,6,7-tetrahydro-1-benzofuran-3-carboxamide] |
| 0.0353 µM | Cn1cc2cc(NC(=O)c3coc4c3C(=O)C(C)(CO)CC4)ccc2n1 (stereo not shown) [Example 167, 5-(hydroxymethyl)-5-methyl-N-(2-methyl-2H-indazol-5-yl)-4-oxo-4,5,6,7-tetrahydro-1-benzofuran-3-carboxamide] |
| 0.0596 µM | COc1cc(N2CCN(C(C)=O)CC2)ccc1NC(=O)c1coc2c1C(=O)C(C)(CN)CC2 (stereo not shown) [Example 169, N-[4-(4-acetylpiperazin-1-yl)-2-methoxyphenyl]-5-(aminomethyl)-5-methyl-4-oxo-4,5,6,7-tetrahydro-1-benzofuran-3-carboxamide] |
| 0.0565 µM | COc1cc(N2CCN(C(C)=O)CC2)ccc1NC(=O)c1coc2c1C(=O)C1(CCNCC1)OC2 [Example 170, N-[4-(4-acetylpiperazin-1-yl)-2-methoxyphenyl]-4-oxo-4,7-dihydrospiro[furo[2,3-c]pyran-5,4′-piperidine]-3-carboxamide] |
| 0.0029 µM | COc1nc(N2CCN(C(C)=O)CC2)ccc1NC(=O)c1coc2c1C(=O)C(C)(C)OC2 [Example 171, N-[6-(4-acetylpiperazin-1-yl)-2-methoxypyridin-3-yl]-5,5-dimethyl-4-oxo-4,7-dihydro-5H-furo[2,3-c]pyran-3-carboxamide] |
| 0.06 µM | COc1cc(N2CCN(C(C)=O)CC2)ccc1NC(=O)c1coc2c1C(=O)C1(COC1)OC2 [Example 172, N-[4-(4-acetylpiperazin-1-yl)-2-methoxyphenyl]-4-oxo-4,7-dihydrospiro[furo[2,3-c]pyran-5,3′-oxetane]-3-carboxamide] |
| 0.0035 µM | CCOc1nc(N2CCN(C(C)=O)CC2)ccc1NC(=O)c1coc2c1C(=O)N(C)C(C)(C)C2 [Example 173, N-[6-(4-acetylpiperazin-1-yl)-2-ethoxypyridin-3-yl]-5,6,6-trimethyl-4-oxo-4,5,6,7-tetrahydrofuro[3,2-c]pyridine-3-carboxamide] |
| 0.0052 µM | CCOc1nc(N2CCN(C(C)=O)CC2)ccc1NC(=O)c1coc2c1C(=O)N(CCO)C(C)(C)C2 [Example 174, N-[6-(4-acetylpiperazin-1-yl)-2-ethoxypyridin-3-yl]-5-(2-hydroxyethyl)-6,6-dimethyl-4-oxo-4,5,6,7-tetrahydrofuro[3,2-c]pyridine-3-carboxamide] |
| 0.0047 µM | CCOc1nc(N2CCN(C(C)=O)CC2)ccc1NC(=O)c1coc2c1C(=O)N(CCOC)C(C)(C)C2 [Example 175, N-[6-(4-acetylpiperazin-1-yl)-2-ethoxypyridin-3-yl]-5-(2-methoxyethyl)-6,6-dimethyl-4-oxo-4,5,6,7-tetrahydrofuro[3,2-c]pyridine-3-carboxamide] |
| 0.0021 µM | CCOc1nc(N2CCN(C(C)=O)CC2)ccc1NC(=O)c1coc2c1C(=O)N(CCOCCO)C(C)(C)C2 [Example 176, N-[6-(4-acetylpiperazin-1-yl)-2-ethoxypyridin-3-yl]-5-[2-(2-hydroxyethoxyl)ethyl]-6,6-dimethyl-4-oxo-4,5,6,7-tetrahydrofuro[3,2-c]pyridine-3-carboxamide] |
| 0.0052 µM | CC(=O)N1CCN(c2ccc(NC(=O)c3coc4c3C(=O)NC(C)(C)C4)c(OCC(F)(F)F)n2)CC1 [Example 178, N-[6-(4-acetylpiperazin-1-yl)-2-(2,2,2-trifluoroethoxyl)pyridin-3-yl]-6,6-dimethyl-4-oxo-4,5,6,7-tetrahydrofuro[3,2-c]pyridine-3-carboxamide] |
| 0.0049 µM | CC(=O)N1CCN(c2ccc(NC(=O)c3coc4c3C(=O)NC(C)(C)C4)c(OC3COC3)n2)CC1 [Example 179, N-[6-(4-acetylpiperazin-1-yl)-2-(oxetan-3-yloxy)pyridin-3-yl]-6,6-dimethyl-4-oxo-4,5,6,7-tetrahydrofuro[3,2-c]pyridine-3-carboxamide] |
| 0.011 µM | CC(=O)N1CCN(c2ccc(NC(=O)c3coc4c3C(=O)NC(C)(C)C4)c(OC3CCOCC3)n2)CC1 [Example 180, N-[6-(4-acetylpiperazin-1-yl)-2-(tetrahydro-2H-pyran-4-yloxy)pyridin-3-yl]-6,6-dimethyl-4-oxo-4,5,6,7-tetrahydrofuro[3,2-c]pyridine-3-carboxamide] |
| 0.0102 µM | CC(=O)N1CCN(c2ccc(NC(=O)c3coc4c3C(=O)NC(C)(C)C4)c(O[C@H]3CCOC3)n2)CC1 [Example 181, N-{6-(4-acetylpiperazin-1-yl)-2-[(3S)-tetrahydrofuran-3-yloxy]pyridin-3-yl}-6,6-dimethyl-4-oxo-4,5,6,7-tetrahydrofuro[3,2-c]pyridine-3-carboxamide] |
| 0.0178 µM | COCCOc1nc(N2CCN(C=O)CC2)ccc1NC(=O)c1coc2c1C(=O)NC(C)(C)C2 [Example 182, N-[6-(4-formylpiperazin-1-yl)-2-(2-methoxyethoxyl)pyridin-3-yl]-6,6-dimethyl-4-oxo-4,5,6,7-tetrahydrofuro[3,2-c]pyridine-3-carboxamide] |
| 0.0048 µM | CC(=O)N1CCN(c2ccc(NC(=O)c3coc4c3C(=O)NC(C)(C)C4)c(OC3C[S+]([O-])C3)n2)CC1 (stereo not shown) [Example 183, N-{6-(4-acetylpiperazin-1-yl)-2-[(1-oxidothietan-3-yl)oxy]pyridin-3-yl}-6,6-dimethyl-4-oxo-4,5,6,7-tetrahydrofuro[3,2-c]pyridine-3-carboxamide] |
| 0.0035 µM | CCOc1nc(C2CCN(C(C)=O)CC2)ccc1NC(=O)c1coc2c1C(=O)NC(C)(C)C2 [Example 184, N-[6-(1-acetylpiperidin-4-yl)-2-ethoxypyridin-3-yl]-6,6-dimethyl-4-oxo-4,5,6,7-tetrahydrofuro[3,2-c]pyridine-3-carboxamide] |
| 0.0066 µM | CCOc1nc(N2CCN(C(C)=O)CC2)ccc1NC(=O)c1coc2c1C(=O)C(c1cc(F)ccc1F)CC2 (stereo not shown) [Example 185, N-[6-(4-acetylpiperazin-1-yl)-2-ethoxypyridin-3-yl]-5-(2,5-difluorophenyl)-4-oxo-4,5,6,7-tetrahydro-1-benzofuran-3-carboxamide] |
